This experiment concerns latexin. Briefly: latexin mRNA by quantitative real-time PCR in leukemic cell lines after 5-aza-2′-deoxycytidine treatment. The experiment is classed as cell-based, human. Conditions: for latexin gene expression: 2 μM for 4 days. The protocol:
To measure the expression of latexin in leukemic cells, quantitative real-time PCR was performed. Identical numbers (200,000) of cells were used for total RNA extraction using RNeasy Mini kit (QIAGEN, Valencia, Calif.) according to the manufacture's instructions. Isolated total RNA was reverse transcribed into cDNA using random hexamers in TaqMan® reverse transcription solution (PN N8080234), and stored at −20° C. In real-time PCR reactions, primer and probe mix for human latexin were purchased from Applied Biosystems (Foster city, CA, USA). TaqMan® human glyceraldehyde-3-phosphate dehydrogenase (GAPDH) was served as an endogenous control to normalize latexin expression. PCR reactions were set up as per manufacturer's instructions using TaqMan® universal PCR master mix (PN 4304437). Analyses of gene expression were performed in single reporter assays in an ABI PRISM 7700 sequence detection system (PE Biosystems, Foster city, CA, USA).
To examine the correlation of promoter hypermethylation and latexin gene expression, leukemia cell lines shown to have a lack of or decrease in latexin expression were subjected to 5-aza-2′-deoxycytidine treatment. Cells were plated with 2 ? M 5-aza-2′-deoxycytidine (Sigma-Aldrich; St. Louis, Mo.), and incubated for 4 days. The medium and the drug were replaced every 24 hours, and cells were harvested for RNA and DNA extraction 4 days after treatment.
A general note: In qPCR the cycle at which signal appears reflects the starting amount.

For `Nc1ncn([C@H]2C[C@H](O)[C@@H](CO)O2)c(=O)n1` [5-aza-2′-deoxycytidine], the latexin gene expression result reads like this: (HL-60, KG-1, SupB15 lines) “significantly up-regulated”; (K562, Molt4, CCRF-CEM, J45.01, Jurkat, U937 (completely lacked latexin expression prior to treatment)) “reactivated”. Moreover, under “human leukemia and lymphoma cell lines treated with the demethylating reagent”, the latexin expression entry was “re-initiated or up-regulated”.
